The results in this text go back to patent US20260022142A1, “MACROCYCLIC IMMUNOMODULATORS” (Bristol-Myers Squibb Company, priority 2022, published 2026).

As usually defined, the IC50 is the point on the concentration scale where inhibition reaches its midpoint.

Each structure is given as a SMILES string. Bridge positions count the residues as written; N and C are the ends. Square brackets hold non-standard residues; d marks the D form. Peptide text beside a SMILES is read from it. * marks the point of attachment. ξ: configuration not given here. Trp(βS-Me) = C[C@@H](c1c[nH]c2ccccc12)[C@H](N)C(=O)O; Phe(4-COOH) = N[C@@H](Cc1ccc(C(=O)O)cc1)C(=O)O; Bip = N[C@@H](Cc1ccc(-c2ccccc2)cc1)C(=O)O; NH(CH2)14COOH = O=C(O)CCCCCCCCCCCCCCN*; Phe(3-Me) = Cc1cccc(C[C@H](N)C(=O)O)c1; Val(3-OH) = CC(C)(O)[C@H](N)C(=O)O; hArg = N=C(N)NCCCC[C@H](N)C(=O)O; 4Pal = N[C@@H](Cc1ccncc1)C(=O)O; Cha = N[C@@H](CC1CCCCC1)C(=O)O; Cit = NC(=O)NCCC[C@H](N)C(=O)O; Thr(3ξ) = CC(O)[C@H](N)C(=O)O; dNle = CCCC[C@@H](N)C(=O)O; 3Abz = Nc1cccc(C(=O)O)c1; Carboxymethyl = O=C(O)C*; Nle = CCCC[C@H](N)C(=O)O; Orn = NCCC[C@H](N)C(=O)O; Pra = C#CC[C@H](N)C(=O)O; Aun = NCCCCCCCCCCC(=O)O; Dab = NCC[C@H](N)C(=O)O; Nva = CCC[C@H](N)C(=O)O; Dap = NC[C@H](N)C(=O)O; AEEA = NCCOCCOCC(=O)O; Ac3c = NC1(C(=O)O)CC1

T1 sequence (Q15116 25-288): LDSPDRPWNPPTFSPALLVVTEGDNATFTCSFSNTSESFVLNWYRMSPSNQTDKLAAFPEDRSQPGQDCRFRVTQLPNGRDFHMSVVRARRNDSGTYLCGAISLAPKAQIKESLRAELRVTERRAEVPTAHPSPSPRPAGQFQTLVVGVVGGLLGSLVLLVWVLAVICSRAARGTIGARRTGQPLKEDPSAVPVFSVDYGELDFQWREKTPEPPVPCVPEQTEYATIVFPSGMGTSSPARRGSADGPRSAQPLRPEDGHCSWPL

This experiment has as its target T1, PD-1/PD-L1 interaction (PE-labeled human PD-L1-Ig binding to Jurkat cell line over-expressing human PD-1) (Homo sapiens, UniProt Q15116).
T1 construct: expressed in transfected cells; host or cells: Jurkat
Briefly: Jurkat-PD-1 Cell Binding High-Content Screening Assay (CBA). The format is cell-based. The note with it: Jurkat cell line over-expressing human PD-1; PE-labeled PD-L1-Ig 20 nM final; read-out: Jurkat hPD1-PDL1 IC50. In a few lines:
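Jurkat-hPD-1 cells, DMEM/10% FCS; cpd 2 h 37° C; PE-PD-L1-Ig 20 nM final, 1 h; 4% PFA fix + Hoechst 33342, 3× dPBS wash; high-content imaging read-out.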
Consider `CC(C)C[C@@H]1NC(=O)[C@H](Cc2c[nH]c3ccccc23)NC(=O)[C@H](CC(=O)O)NC(=O)[C@H](Cc2ccncc2)NC(=O)[C@H](Cc2ccc(OCC(=O)O)cc2)NC(=O)CSC[C@@H](C(=O)Nc2cccc(C(=O)NCCCCCCCCCCC(=O)O)c2)NC(=O)[C@H](CN)NC(=O)[C@H](C(C)C)NC(=O)[C@H](CC2CCCCC2)NC(=O)[C@H](CCN)NC(=O)[C@@H](CC(C)C)NC(=O)[C@H](CCCN)NC(=O)[C@H](C(C)C)NC(=O)[C@H](Cc2ccc(-c3ccccc3)cc2)NC1=O` [Compound 1282] ({CH2CO}-Y(Carboxymethyl)[4Pal]DWL[Bip]V[Orn][dL][Dab][Cha]V[Dap]C[3Abz][Aun]-OH; thioether N-14), for which the IC50 is 631 nM.

On to `CCCC[C@@H]1NC(=O)CSC[C@@H](C(=O)N[C@@H](CCN)C(=O)NCCOCCOCC(=O)N[C@@H](CO)C(=O)N[C@H](CCC(=O)NCCCCCCCCCCCCCCC(=O)O)C(=O)O)NC(=O)[C@H](CC(=O)O)NC(=O)[C@H](C(C)(C)O)NC(=O)[C@H](CC2CCCCC2)NC(=O)[C@H](CCN)NC(=O)[C@@H](CC(C)C)NC(=O)[C@H](CCCN)NC(=O)[C@H](Cc2ccc(OCC(=O)O)cc2)NC(=O)[C@H](Cc2ccc(-c3ccccc3)cc2)NC(=O)[C@H](Cc2ccc(C(=O)O)cc2)NC(=O)[C@H](Cc2cccc(C)c2)NC(=O)[C@H](CC(=O)O)NC(=O)[C@H](Cc2ccc(OCC(=O)O)cc2)NC1=O` [Compound 3893] ({CH2CO}-[Nle]Y(Carboxymethyl)D[Phe(3-Me)][Phe(4-COOH)][Bip]Y(Carboxymethyl)[Orn][dL][Dab][Cha][Val(3-OH)]DC[Dab][AEEA]S[dE](NH(CH2)14COOH)-OH; thioether N-14), for which the IC50 was found to be 369 nM. On to `C#CC[C@H](NC(=O)COCCOCCNC(=O)[C@@H]1CSCC(=O)N[C@@H](Cc2ccncc2)C(=O)N[C@@H](Cc2ccc(OCC(=O)O)cc2)C(=O)N[C@@H](CC(=O)O)C(=O)N[C@@H](Cc2c[nH]c3ccccc23)C(=O)N[C@@H](C(C)C)C(=O)N[C@@H](Cc2ccc(-c3ccccc3)cc2)C(=O)N[C@@H]([C@@H](C)CC)C(=O)N[C@@H](CCCN)C(=O)N[C@H](CC(C)C)C(=O)N[C@@H](CCN)C(=O)N[C@@H](CC(C)C)C(=O)N[C@@H](C(C)C)C(=O)N[C@@H]([C@@H](C)O)C(=O)N1)C(=O)N[C@@H](CCCNC(=N)N)C(=O)NCCCCCCCCCCC(=O)O` [Compound 1215] ({CH2CO}-[4Pal]Y(Carboxymethyl)DWV[Bip]I[Orn][dL][Dab]LVTC[AEEA][Pra]R[Aun]-OH; thioether N-14), for which the IC50 came to 13.8 nM. Take `Cc1cccc(C[C@@H]2NC(=O)[C@H](CC(=O)O)NC(=O)[C@H](Cc3ccc(O)cc3)NC(=O)[C@H](Cc3ccncc3)NC(=O)CSC[C@@H](C(=O)N[C@@H](CCN)C(=O)NCCOCCOCC(=O)NCCCCCCCCCCC(=O)O)NC(=O)[C@H](CCCN)NC(=O)[C@H](C(C)C)NC(=O)[C@H](CC3CCCCC3)NC(=O)[C@H](CCN)NC(=O)[C@@H](CC(C)C)NC(=O)[C@H](CCCN)NC(=O)[C@H](Cc3ccc(O)cc3)NC(=O)[C@H](Cc3ccc(-c4ccccc4)cc3)NC(=O)[C@H](C(C)C)NC2=O)c1` [Compound 2707] ({CH2CO}-[4Pal]YD[Phe(3-Me)]V[Bip]Y[Orn][dL][Dab][Cha]V[Orn]C[Dab][AEEA][Aun]-OH; thioether N-14): the IC50 was 20.8 nM. In the case of `CC[C@H](C)[C@@H]1NC(=O)[C@H](Cc2ccc(-c3ccccc3)cc2)NC(=O)[C@H](C(C)C)NC(=O)[C@H](Cc2c[nH]c3ccccc23)NC(=O)[C@H](CC(=O)O)NC(=O)[C@H](Cc2ccc(OCC(=O)O)cc2)NC(=O)[C@H](CN)NC(=O)CSC[C@@H](C(=O)N[C@@H](CCN)C(=O)NCCOCCOCC(=O)NCCCCCCCCCCC(=O)O)NC(=O)[C@H](CCCCN)NC(=O)[C@H](C(C)C)NC(=O)[C@H](CC2CCCCC2)NC(=O)[C@H](CCN)NC(=O)[C@@H](CC(C)C)NC(=O)[C@H](CCCN)NC1=O` [Compound 2632] ({CH2CO}-[Dap]Y(Carboxymethyl)DWV[Bip]I[Orn][dL][Dab][Cha]VKC[Dab][AEEA][Aun]-OH; thioether N-14), the IC50 came to 12.4 nM. With `CC(C)C[C@H]1NC(=O)[C@H](CCCN)NC(=O)[C@H](CCCNC(N)=O)NC(=O)[C@H](Cc2ccc(-c3ccccc3)cc2)NC(=O)[C@H](C(C)C)NC(=O)[C@H]([C@@H](C)c2c[nH]c3ccccc23)NC(=O)[C@H](CC(=O)O)NC(=O)[C@H](Cc2ccc(OCC(=O)O)cc2)NC(=O)[C@H](CCCNC(=N)N)NC(=O)CSC[C@@H](C(=O)NC2(C(=O)NCCCCCCCCCCC(=O)O)CC2)NC(=O)[C@H]([C@@H](C)O)NC(=O)[C@H](C(C)C)NC(=O)[C@H](CC2CCCCC2)NC(=O)[C@H](CCN)NC1=O` [Compound 2134] ({CH2CO}-RY(Carboxymethyl)D[Trp(βS-Me)]V[Bip][Cit][Orn][dL][Dab][Cha]VTC[Ac3c][Aun]-OH; thioether N-14), the IC50 was 38.5 nM. For `CCCC[C@H]1NC(=O)[C@H](CCCN)NC(=O)[C@H](C(C)C)NC(=O)[C@H](Cc2ccc(-c3ccccc3)cc2)NC(=O)[C@H](C(C)C)NC(=O)[C@H](Cc2cccc(C)c2)NC(=O)[C@H](CC(=O)O)NC(=O)[C@H](Cc2ccc(OCC(=O)O)cc2)NC(=O)[C@H](CN)NC(=O)CSC[C@@H](C(=O)NCCOCCOCC(=O)N[C@@H](CCN)C(=O)NCCCCCCCCCCC(=O)O)NC(=O)[C@H](CCCN)NC(=O)[C@H](C(C)C)NC(=O)[C@H](CC2CCCCC2)NC(=O)[C@H](CCN)NC1=O` [Compound 2676] ({CH2CO}-[Dap]Y(Carboxymethyl)D[Phe(3-Me)]V[Bip]V[Orn][dNle][Dab][Cha]V[Orn]C[AEEA][Dab][Aun]-OH; thioether N-14), the 50% inhibitory concentration (IC50) came out at 10.2 nM. On to `CCC[C@@H]1NC(=O)CSC[C@@H](C(=O)N[C@@H](CCN)C(=O)NCCOCCOCC(=O)NCCCCCCCCCCCCCCC(=O)O)NC(=O)[C@H](CO)NC(=O)[C@H](C(C)(C)O)NC(=O)[C@H](CC2CCCCC2)NC(=O)[C@H](CCN)NC(=O)[C@@H](CC(C)C)NC(=O)[C@H](CCCN)NC(=O)[C@H](Cc2ccc(OCC(=O)O)cc2)NC(=O)[C@H](Cc2ccc(-c3ccccc3)cc2)NC(=O)[C@H](Cc2ccc(OCC(=O)O)cc2)NC(=O)[C@H](Cc2cccc(C)c2)NC(=O)[C@H](CC(=O)O)NC(=O)[C@H](Cc2ccc(OCC(=O)O)cc2)NC1=O` [Compound 2868] ({CH2CO}-[Nva]Y(Carboxymethyl)D[Phe(3-Me)]Y(Carboxymethyl)[Bip]Y(Carboxymethyl)[Orn][dL][Dab][Cha][Val(3-OH)]SC[Dab][AEEA]-{NH(CH2)14COOH}; thioether N-14), for which the IC50 stood at 467 nM. `Cc1cccc(C[C@@H]2NC(=O)[C@H](CC(=O)O)NC(=O)[C@H](Cc3ccc(OCC(=O)O)cc3)NC(=O)[C@H](CN)NC(=O)CSC[C@@H](C(=O)N[C@@H](C)C(=O)N[C@@H](CCC(=O)O)C(=O)NCCCCCCCCCCC(=O)O)NC(=O)[C@H]([C@@H](C)O)NC(=O)[C@H](C(C)C)NC(=O)[C@H](CC3CCCCC3)NC(=O)[C@H](CCN)NC(=O)[C@@H](CC(C)C)NC(=O)[C@H](CCCN)NC(=O)[C@H](CCCNC(N)=O)NC(=O)[C@H](Cc3ccc(-c4ccccc4)cc3)NC(=O)[C@H](C(C)C)NC2=O)c1` [Compound 1005] ({CH2CO}-[Dap]Y(Carboxymethyl)D[Phe(3-Me)]V[Bip][Cit][Orn][dL][Dab][Cha]VTCAE[Aun]-OH; thioether N-14): the IC50 is 1.1 nM. Consider `CC(=O)NCCCC[C@@H]1NC(=O)[C@H](Cc2ccc(-c3ccccc3)cc2)NC(=O)[C@H](Cc2ccc(O)cc2)NC(=O)[C@H](Cc2cccc(C)c2)NC(=O)[C@H](CC(=O)O)NC(=O)[C@H](Cc2ccc(OCC(=O)O)cc2)NC(=O)[C@H](CCCCNC(=N)N)NC(=O)CSC[C@@H](C(=O)N[C@@H](CCN)C(=O)NCCCCCCCCCCC(=O)O)NC(=O)[C@H](C(C)O)NC(=O)[C@H](C(C)C)NC(=O)[C@H](CC2CCCCC2)NC(=O)[C@H](CCN)NC(=O)[C@@H](CC(C)C)NC(=O)[C@H](CCCN)NC1=O` (stereo partly drawn) [Compound 3505] ({CH2CO}-[hArg]Y(Carboxymethyl)D[Phe(3-Me)]Y[Bip]K(Ac)[Orn][dL][Dab][Cha]V[Thr(3ξ)]C[Dab][Aun]-OH; thioether N-14), for which the concentration for half-maximal inhibition (IC50) stood at 16.6 nM. For the compound `Cc1cccc(C[C@@H]2NC(=O)[C@H](CC(=O)O)NC(=O)[C@H](Cc3ccc(OCC(=O)O)cc3)NC(=O)[C@H](C(C)O)NC(=O)CSC[C@@H](C(=O)NCCOCCOCC(=O)NCCCCCCCCCCC(=O)O)NC(=O)[C@H](C(C)O)NC(=O)[C@H](C(C)C)NC(=O)[C@H](CC3CCCCC3)NC(=O)[C@H](CCN)NC(=O)[C@@H](CC(C)C)NC(=O)[C@H](CCCN)NC(=O)[C@H](CCCNC(N)=O)NC(=O)[C@H](Cc3ccc(-c4ccccc4)cc3)NC(=O)[C@H](C(C)C)NC2=O)c1` (stereo partly drawn) [Compound 3460] ({CH2CO}-[Thr(3ξ)]Y(Carboxymethyl)D[Phe(3-Me)]V[Bip][Cit][Orn][dL][Dab][Cha]V[Thr(3ξ)]C[AEEA][Aun]-OH; thioether N-14), the IC50 was 17 nM. As for `CC(C)C[C@H]1NC(=O)[C@H](CCCN)NC(=O)[C@H](C(C)C)NC(=O)[C@H](Cc2ccc(-c3ccccc3)cc2)NC(=O)[C@H](C(C)C)NC(=O)[C@H](Cc2c[nH]c3ccccc23)NC(=O)[C@H](CC(=O)O)NC(=O)[C@H](Cc2ccc(OCC(=O)O)cc2)NC(=O)[C@H](CN)NC(=O)CSC[C@@H](C(=O)NCCOCCOCC(=O)N[C@H](C)C(=O)NCCCCCCCCCCC(=O)O)NC(=O)[C@H]([C@@H](C)O)NC(=O)[C@H](C(C)C)NC(=O)[C@H](CC2CCCCC2)NC(=O)[C@H](Cc2cnc[nH]2)NC1=O` [Compound 1127] ({CH2CO}-[Dap]Y(Carboxymethyl)DWV[Bip]V[Orn][dL]H[Cha]VTC[AEEA][dA][Aun]-OH; thioether N-14), the IC50 amounted to 25.6 nM.
